Measurements: patent publication US12559529B2, “NPY2 receptor agonists” (Boehringer Ingelheim International GmbH, priority 2019, dated 2026)
*1 amine or outer side, *2 acyl side, *3 side chain or, on linkers, in order; H or OH if unused. Where a SMILES comes first, the peptide text is derived from it. Side-chain parts run from the residue outwards. The star is where a group is joined. C18 diacid = O=C(O)CCCCCCCCCCCCCCCCC(=O)*; γGlu = O=C(O)[C@H](CCC(=O)[*:2])N[*:1]; Isovaleryl = CC(C)CC(=O)*; AEEA = NCCOCCOCC(=O)O

Columns and labels:
normal NMRI mice = experiment: Effect on acute food intake in normal NMRI mice; assay type: in vivo; conditions: male NMRI mice, 10 nmol/kg subcutaneously once
Procedure, shortened: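 Male NMRI mice acclimatized in an HM-2 real-time food intake monitoring system, fasted 6 h before dark phase. Single subcutaneous dose of 10 nmol/kg peptide given 1 h before dark; n=7-8. Food intake expressed as % of vehicle group (50 mM phosphate pH7, 5% Mannitol).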

[1] = target: T1, Human Neuropeptide Y2 Receptor (Homo sapiens, UniProt P49146); experiment: Radioligand binding competition assay (RLB); conditions: Table 3; human 125I-PYY (1-36) 0.02 nM, Y2 receptor membranes; read-out: Ki
T1 construct: purchased CHEMICON HTS066M
T1 sequence (P49146 1-381): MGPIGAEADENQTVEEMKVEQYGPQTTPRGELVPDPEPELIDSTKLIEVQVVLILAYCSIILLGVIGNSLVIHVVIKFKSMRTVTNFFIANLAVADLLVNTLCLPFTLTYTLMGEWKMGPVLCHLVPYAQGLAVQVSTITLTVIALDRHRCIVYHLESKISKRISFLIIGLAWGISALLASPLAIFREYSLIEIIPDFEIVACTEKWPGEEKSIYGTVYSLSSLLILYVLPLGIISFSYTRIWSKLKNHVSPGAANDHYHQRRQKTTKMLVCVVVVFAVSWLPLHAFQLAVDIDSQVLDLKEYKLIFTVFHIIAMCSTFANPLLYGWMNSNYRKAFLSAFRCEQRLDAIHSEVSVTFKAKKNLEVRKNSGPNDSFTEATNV
Procedure, shortened: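 Competition binding on human Y2 receptor membranes, 0.5 μg protein/well, in 50 mM HEPES, 5 mM MgCl2, 1 mM CaCl2, pH 7.4, 0.2% ovalbumin; peptides diluted from 1 mM DMSO stocks.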

Question: CC(C)CC(=O)N[C@@H](C)C(=O)N1CCC[C@H]1C(=O)N[C@@H](CCC(=O)O)C(=O)N[C@@H](CCCCNC(=O)COCCOCCNC(=O)COCCOCCNC(=O)CC[C@H](NC(=O)CCCCCCCCCCCCCCCCC(=O)O)C(=O)O)C(=O)N1CCC[C@H]1C(=O)N[C@@H](CCC(=O)O)C(=O)N[C@@H](CCC(=O)O)C(=O)N[C@@H](CC(=O)O)C(=O)N[C@@H](C)C(=O)N[C@@H](CO)C(=O)N1CCC[C@H]1C(=O)N[C@@H](CCC(=O)O)C(=O)N[C@@H](CCC(=O)O)C(=O)N[C@H](C(=O)N[C@@H](CCC(N)=O)C(=O)N[C@@H](CCCNC(=N)N)C(=O)N[C@@H](Cc1ccc(O)cc1)C(=O)N[C@@H](Cc1ccc(O)cc1)C(=O)N[C@H](C(=O)N[C@@H](CCC(=O)O)C(=O)N[C@@H](CC(C)C)C(=O)N[C@@H](CCCNC(=N)N)C(=O)N[C@@H](Cc1c[nH]cn1)C(=O)N[C@@H](Cc1ccc(O)cc1)C(=O)N[C@@H](Cc1ccc(O)cc1)C(=O)N[C@@H](CC(N)=O)C(=O)N[C@@H](Cc1c[nH]c2ccccc12)C(=O)N[C@@H](CC(C)C)C(=O)N[C@H](C(=O)N[C@@H](CCCNC(=N)N)C(=O)N[C@@H](CCC(N)=O)C(=O)N[C@@H](CCCNC(=N)N)C(=O)N[C@@H](Cc1ccc(O)cc1)C(N)=O)[C@@H](C)O)C(C)C)C(C)C [Compound 133, N{alpha-4}-(3-methylbutanoyl)-N{epsilon-7}-[2-(2-{2-[2-(2-{2-[(4S)-4-carboxy-4-(17-carboxyheptadecanamido)butanamido]ethoxy}ethoxy)acetamido]ethoxy}ethoxy)acetamido]-[4A,7K,9E,17V,18Q,22V,23E,28Y,30W,31L]hPYY (4-36)] was tested. Which “Acute Food Intake 24 h [% vehicle]” value (normal NMRI mice) did it give?
Answer: The value was 57 % vehicle.

Question: And the Ki [1]?
Answer: Its Ki is 2.31 nM.

Question: How did the “Acute Food Intake 24 h [% vehicle]” value (normal NMRI mice) turn out when CC(C)CC(=O)N[C@@H](C)C(=O)N1CCC[C@H]1C(=O)N[C@@H](CCC(=O)O)C(=O)N[C@@H](CCCCNC(=O)COCCOCCNC(=O)COCCOCCNC(=O)CC[C@H](NC(=O)CCCCCCCCCCCCCCCCC(=O)O)C(=O)O)C(=O)N1CCC[C@H]1C(=O)N[C@@H](CCC(=O)O)C(=O)N[C@@H](CCC(=O)O)C(=O)N[C@@H](CCC(=O)O)C(=O)N[C@@H](CO)C(=O)N[C@@H](CO)C(=O)N1CCC[C@H]1C(=O)N[C@@H](CCC(=O)O)C(=O)N[C@@H](CCC(=O)O)C(=O)N[C@@H](CC(C)C)C(=O)N[C@@H](CCC(N)=O)C(=O)N[C@@H](CCCNC(=N)N)C(=O)N[C@@H](Cc1ccc(O)cc1)C(=O)N[C@@H](Cc1ccc(O)cc1)C(=O)N[C@H](C(=O)N[C@@H](CO)C(=O)N[C@@H](CC(C)C)C(=O)N[C@@H](CCCNC(=N)N)C(=O)N[C@@H](Cc1c[nH]cn1)C(=O)N[C@@H](Cc1ccc(O)cc1)C(=O)N[C@@H](Cc1ccc(O)cc1)C(=O)N[C@@H](CC(N)=O)C(=O)N[C@@H](Cc1c[nH]c2ccccc12)C(=O)N[C@@H](CC(C)C)C(=O)N[C@H](C(=O)N[C@@H](CCCNC(=N)N)C(=O)N[C@@H](CCC(N)=O)C(=O)N[C@@H](CCCNC(=N)N)C(=O)N[C@@H](Cc1ccc(O)cc1)C(N)=O)[C@@H](C)O)C(C)C [Compound 139, N{alpha-4}-(3-methylbutanoyl)-N{epsilon-7}-[2-(2-{2-[2-(2-{2-[(4S)-4-carboxy-4-(17-carboxyheptadecanamido)butanamido]ethoxy}ethoxy)acetamido]ethoxy}ethoxy)acetamido]-[4A,7K,9E,11E,12S,18Q,22V,28Y,30W,31L]hPYY (4-36)] (Isovaleryl-APEK([AEEA-AEEA-γGlu-C18 diacid])PEEESSPEELQRYYVSLRHYYNWLTRQRY-NH2) was run?
Answer: Its value is 74 % vehicle.

Question: What about the Ki [1] of the same compound?
Answer: Its Ki is 3.83 nM.

Question: What does the source list for CC(C)CC(=O)N[C@@H](C)C(=O)N1CCC[C@H]1C(=O)N[C@@H](CCC(=O)O)C(=O)N[C@@H](CCCCNC(=O)COCCOCCNC(=O)COCCOCCNC(=O)CC[C@H](NC(=O)CCCCCCCCCCCCCCCCC(=O)O)C(=O)O)C(=O)N1CCC[C@H]1C(=O)N[C@@H](CCC(=O)O)C(=O)N[C@@H](CCC(=O)O)C(=O)N[C@@H](CC(=O)O)C(=O)N[C@@H](C)C(=O)N[C@@H](CCC(=O)O)C(=O)N1CCC[C@H]1C(=O)N[C@@H](CCC(=O)O)C(=O)N[C@@H](CCC(=O)O)C(=O)N[C@@H](CC(C)C)C(=O)N[C@@H](CCC(N)=O)C(=O)N[C@@H](CCCCN)C(=O)N[C@@H](Cc1ccc(O)cc1)C(=O)N[C@@H](Cc1ccc(O)cc1)C(=O)N[C@H](C(=O)N[C@@H](CO)C(=O)N[C@@H](CC(C)C)C(=O)N[C@@H](CCCNC(=N)N)C(=O)N[C@@H](Cc1c[nH]cn1)C(=O)N[C@@H](Cc1ccc(O)cc1)C(=O)N[C@@H](Cc1ccc(O)cc1)C(=O)N[C@@H](CC(N)=O)C(=O)N[C@@H](Cc1c[nH]c2ccccc12)C(=O)N[C@@H](CC(C)C)C(=O)N[C@H](C(=O)N[C@@H](CCCNC(=N)N)C(=O)N[C@@H](CCC(N)=O)C(=O)N[C@@H](CCCNC(=N)N)C(=O)N[C@@H](Cc1ccc(O)cc1)C(N)=O)[C@@H](C)O)C(C)C [Compound 150, N{alpha-4}-(3-methylbutanoyl)-N{epsilon-7}-[2-(2-{2-[2-(2-{2-[(4S)-4-carboxy-4-(17-carboxyheptadecanamido)butanamido]ethoxy}ethoxy)acetamido]ethoxy}ethoxy)acetamido]-[4A,7K,9E,13E,18Q,19K,22V,28Y,30W,31L]hPYY (4-36)]?
Answer: Acute Food Intake 24 h [% vehicle] (normal NMRI mice): 67 % vehicle; Ki [1]: 2.02 nM

Question: CC(C)CC(=O)N[C@@H](C)C(=O)N1CCC[C@H]1C(=O)N[C@@H](CCC(=O)O)C(=O)N[C@@H](CCCCNC(=O)COCCOCCNC(=O)COCCOCCNC(=O)CC[C@H](NC(=O)CCCCCCCCCCCCCCCCC(=O)O)C(=O)O)C(=O)N1CCC[C@H]1C(=O)N[C@@H](CCC(=O)O)C(=O)N[C@@H](C)C(=O)N[C@@H](CCC(=O)O)C(=O)N[C@@H](C)C(=O)N[C@@H](CO)C(=O)N1CCC[C@H]1C(=O)N[C@@H](CCC(=O)O)C(=O)N[C@@H](CCC(=O)O)C(=O)N[C@@H](CC(C)C)C(=O)N[C@@H](CCC(N)=O)C(=O)N[C@@H](CCCNC(=N)N)C(=O)N[C@@H](Cc1ccc(O)cc1)C(=O)N[C@@H](Cc1ccc(O)cc1)C(=O)N[C@H](C(=O)N[C@@H](CO)C(=O)N[C@@H](CC(C)C)C(=O)N[C@@H](CCCNC(=N)N)C(=O)N[C@@H](Cc1c[nH]cn1)C(=O)N[C@@H](Cc1ccc(O)cc1)C(=O)N[C@@H](Cc1ccc(O)cc1)C(=O)N[C@@H](CC(N)=O)C(=O)N[C@@H](Cc1c[nH]c2ccccc12)C(=O)N[C@@H](CC(C)C)C(=O)N[C@H](C(=O)N[C@@H](CCCNC(=N)N)C(=O)N[C@@H](CCC(N)=O)C(=O)N[C@@H](CCCNC(=N)N)C(=O)N[C@@H](Cc1ccc(O)cc1)C(N)=O)[C@@H](C)O)C(C)C [Compound 151, N{alpha-4}-(3-methylbutanoyl)-N{epsilon-7}-[2-(2-{2-[2-(2-{2-[(4S)-4-carboxy-4-(17-carboxyheptadecanamido)butanamido]ethoxy}ethoxy)acetamido]ethoxy}ethoxy)acetamido]-[4A,7K,9E,10A,11E,18Q,22V,28Y,30W,31L]hPYY (4-36)] was tested. Which “Acute Food Intake 24 h [% vehicle]” value (normal NMRI mice) did it give?
Answer: The value was 45 % vehicle.

Question: And the Ki [1]?
Answer: The Ki was 1.43 nM.

Question: What does the source list for CC(C)CC(=O)N[C@@H](C)C(=O)N1CCC[C@H]1C(=O)N[C@@H](CCC(=O)O)C(=O)N[C@@H](CCCCNC(=O)COCCOCCNC(=O)COCCOCCNC(=O)CC[C@H](NC(=O)CCCCCCCCCCCCCCCCC(=O)O)C(=O)O)C(=O)N1CCC[C@H]1C(=O)N[C@@H](CCC(=O)O)C(=O)N[C@@H](CCC(=O)O)C(=O)N[C@@H](C)C(=O)N[C@@H](C)C(=O)N[C@@H](CO)C(=O)N1CCC[C@H]1C(=O)N[C@@H](CCC(=O)O)C(=O)N[C@@H](CCC(=O)O)C(=O)N[C@@H](CC(C)C)C(=O)N[C@@H](CCC(N)=O)C(=O)N[C@@H](CCCNC(=N)N)C(=O)N[C@@H](Cc1ccc(O)cc1)C(=O)N[C@@H](Cc1ccc(O)cc1)C(=O)N[C@H](C(=O)N[C@@H](C)C(=O)N[C@@H](CC(C)C)C(=O)N[C@@H](CCCNC(=N)N)C(=O)N[C@@H](Cc1c[nH]cn1)C(=O)N[C@@H](Cc1ccc(O)cc1)C(=O)N[C@@H](Cc1ccc(O)cc1)C(=O)N[C@@H](CC(N)=O)C(=O)N[C@@H](Cc1c[nH]c2ccccc12)C(=O)N[C@@H](CC(C)C)C(=O)N[C@H](C(=O)N[C@@H](CCCNC(=N)N)C(=O)N[C@@H](CCC(N)=O)C(=O)N[C@@H](CCCNC(=N)N)C(=O)N[C@@H](Cc1ccc(O)cc1)C(N)=O)[C@@H](C)O)C(C)C [Compound 163, N{alpha-4}-(3-methylbutanoyl)-N{epsilon-7}-[2-(2-{2-[2-(2-{2-[(4S)-4-carboxy-4-(17-carboxyheptadecanamido)butanamido]ethoxy}ethoxy)acetamido]ethoxy}ethoxy)acetamido]-[4A,7K,9E,11A,18Q,22V,23A,28Y,30W,31L]hPYY (4-36)]?
Answer: Acute Food Intake 24 h [% vehicle] (normal NMRI mice): 50 % vehicle; Ki [1]: 0.96 nM
